Laboratory results reported in patent US5496703A, “Indirect immunoassay for dioxinlike compounds” (priority 1993, dated 1996).
Several values for one entry are separate records, joined by “and”; a condition that tells them apart may be missing. Equal values may be shown once.

Legend:
cytochrome P-450IA1 [1] = assay: Ethoxyresorufin O-deethylase assay (EROD), hepatic S-9, mice dosed i.p.; format: in vivo, C57BL/6 mice; conditions: hepatic S-9, i.p., 24 hours after dosing
Description: Female, C57BL/6 mice (or any cytochrome P-450IA1 inducible strain) were obtained from Harton Sprague Dawley (Indianapolis, Ind.). Experiments were performed using four to six week old, female mice weighing approximately 16 to 20 g. Mice were fed Prolab RMH 1000 rat, mouse and hamster food (Agway, Cortland, N.Y.) and received tap water ad libitum. All mice were housed three to five per cage and maintained on a photoperiod of 12 hours. Mice were killed 24 hours following an intraperitoneal injection of either corn oil alone or TCDD (Analabs) at 0.25, 0.5, 1, 2, 4, 10, 50 μg/kg, the volume of the injections ranged from 0.1 to 0.2 ml per mouse. […]
(§1) Resorufin (hydroxyphenoxazone) and ethoxyresorufin was purchased from Molecular Probes (Junction City, Oreg.). EROD was measured by following the increase in fluorescence due to the formation of resorufin by dealkylation of its ethoxy derivative. […] A baseline of fluorescence was recorded at an excitation wavelength of 530 nm and an emission wavelength of 585 nm. The reaction was started with the addition of NADPH and the dealkylation of the derivative to resorufin was followed by a progressive increase in fluorescence as resorufin was generated. Recordings were standardized by measuring the fluorescence of freshly generated resorufin from resorufin acetate (Sigma, St. Louis, Mo.) prior to each assay. […]

[2] = tested on: cytochrome P-450IA1 aryl hydrocarbon hydroxylase; conditions: 3 days post-injection (Poland et al. 1974); cited from earlier work
Ah receptor = conditions: C57BL/6J mouse; cited from earlier work
cytochrome P-450IA1 [3] = assay: Ethoxyresorufin O-deethylase assay (EROD), X3 cells; format: cell-based, human; conditions: 16 hours
Description: The X3 human lymphoblastoma cells (Genetest, Wolburn, Mass.) were grown in 75 cm^2 T-flasks in RPMI 1640 medium (Gibco) containing 9% horse serum. Any cell or cell line expressing cytochrome P-450IA1 may be used. The cells were cultured at 37° C. in a 5% CO2 (balance air) environment. Cells were subcultured by centrifuging (1000 rpm, 3 minutes) and resuspended in fresh media to a volume of 50 mL (at a cell density of 1.0×10^6 cells/mL). The TCDD-corn oil solution was homogenized with serum to a final concentration of 0.10 μg/mL. The TCDD-serum was added at concentrations of 0, 0.02, 0.05, 0.1, 0.5 and 1.0 nM per flask and incubated for 16 hours. […] A final cell count was then determined.
as §1, with “ethoxyresorufin were” for “ethoxyresorufin was”

hepatic Ah receptor = conditions: room temperature, ligand concentration 10^-9 M; cited from earlier work
rodents = conditions: guinea pig to hamster; cited from earlier work
protein kinase C = conditions: cited from earlier work
phospholipase C = conditions: certain cell lines; cited from earlier work
[4] = cited from earlier work
[5] = single human; cited from earlier work

**Q.** For `Clc1cc2c(cc1Cl)Oc1cc(Cl)c(Cl)cc1O2` [TCDD, 2,3,7,8-tetrachlorodibenzo-p-dioxin], which “ED50, cytochrome P-450IA1 expression (EROD)” value (cytochrome P-450IA1 [1]) is on record?
**A.** The value was 5 μg TCDD/kg.

**Q.** What about the “dose of maximal EROD activity” value (cytochrome P-450IA1 [1]) of the same molecule?
**A.** Its value is 50 μg TCDD/kg.

**Q.** What about the “published ED50, induction of aryl hydrocarbon hydroxylase specific activity” value [2] of the same molecule?
**A.** Its value is “approximately 3 μg/kg”.

**Q.** And the “hepatic level of Ah receptor capable of binding TCDD” value (Ah receptor)?
**A.** The value was 40-120 fmol/mg of protein.

**Q.** And the “concentration of maximal EROD activity” value (cytochrome P-450IA1 [3])?
**A.** Its value is 2 nM and 1 nM.

**Q.** What about the EC50 (cytochrome P-450IA1 [3]; probit model) of the same molecule?
**A.** Its EC50 is 0.3 nM.

**Q.** And the “saturation half-life of binding” value (hepatic Ah receptor)?
**A.** The value was “less than 1 hour”.

**Q.** And the “range of LD50 among rodents” value (rodents)?
**A.** The value was ≥ 2500 fold.

**Q.** What about the “protein kinase C activity” value (protein kinase C) of the same molecule?
**A.** The value was “increases the activity of protein kinase C”.

**Q.** What about the “phospholipase C activation” value (phospholipase C) of the same molecule?
**A.** Its value is “activates protein kinase C in certain cell lines but also phospholipase C”.

**Q.** And the “difference in whole body half-life between guinea pig and hamster” value ([4]; guinea pig versus hamster)?
**A.** The value was 3 fold.

**Q.** What about the whole-body half-life ([4]; rodents) of the same molecule?
**A.** The whole-body half-life was “on the order of weeks”.

**Q.** And the half-life [5]?
**A.** The half-life was 5.8 year.
